From ChEMBL document CHEMBL2417435, “The discovery of potent blockers of the canonical transient receptor channels, TRPC3 and TRPC6, based on an anilino-thiazole pharmacophore” (Bioorg Med Chem Lett, 2013) come the findings set out here.

In general, IC50 refers to the point on the concentration scale where inhibition reaches its midpoint. Broadly, the MRT is a mean duration of stay, worked out from the concentration-time curve. Broadly, the Cmax is the highest concentration seen after dosing. By Vdss is commonly meant a proportionality between amount in the body and measured concentration, not a real space. Low readings indicate little distribution into tissue, high ones wide distribution into tissue. Usually bioavailability stands for the share of a dose that reaches the circulation, judged against a reference dose that is usually intravenous. A word on the clearance: it is a measure of how efficiently the substance is removed, as volume per time. A low value points to a low capacity for elimination.

SMILES strings stand for the structures. Calls of active or inactive are those of the source. The rule behind the calls is not given here.

For data set [1], the target named is T1, Short transient receptor potential channel 6 (Homo sapiens, UniProt Q9Y210).
T1 sequence (Q9Y210 whole entry): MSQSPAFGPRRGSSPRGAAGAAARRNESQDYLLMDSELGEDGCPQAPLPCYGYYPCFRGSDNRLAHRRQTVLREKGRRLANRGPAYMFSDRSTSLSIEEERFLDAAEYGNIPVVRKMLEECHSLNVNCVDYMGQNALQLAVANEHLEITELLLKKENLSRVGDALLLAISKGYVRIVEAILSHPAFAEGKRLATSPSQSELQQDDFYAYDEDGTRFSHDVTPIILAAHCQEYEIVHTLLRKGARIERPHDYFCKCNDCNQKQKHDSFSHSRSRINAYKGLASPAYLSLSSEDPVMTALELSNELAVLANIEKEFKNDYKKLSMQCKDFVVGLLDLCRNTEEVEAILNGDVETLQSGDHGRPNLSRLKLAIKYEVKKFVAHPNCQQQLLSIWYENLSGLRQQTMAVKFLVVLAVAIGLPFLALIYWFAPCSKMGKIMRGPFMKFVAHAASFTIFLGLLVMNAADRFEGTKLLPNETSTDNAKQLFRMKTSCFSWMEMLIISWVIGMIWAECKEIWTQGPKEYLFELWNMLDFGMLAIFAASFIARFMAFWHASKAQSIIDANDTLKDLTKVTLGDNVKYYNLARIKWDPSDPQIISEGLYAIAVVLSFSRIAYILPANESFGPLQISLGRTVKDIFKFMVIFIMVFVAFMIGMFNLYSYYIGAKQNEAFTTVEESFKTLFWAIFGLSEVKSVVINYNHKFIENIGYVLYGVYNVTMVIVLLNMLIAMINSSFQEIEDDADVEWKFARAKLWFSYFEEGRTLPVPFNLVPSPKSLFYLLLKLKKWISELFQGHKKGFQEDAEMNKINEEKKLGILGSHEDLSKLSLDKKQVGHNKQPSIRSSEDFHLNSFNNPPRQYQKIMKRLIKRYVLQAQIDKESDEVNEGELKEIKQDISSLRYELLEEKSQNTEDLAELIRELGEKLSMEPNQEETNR
The data set can be described thus: Inhibition of human recombinant TRPC6 expressed in HEK293-MSRII cells assessed as carbachol-stimulated Ca2+/Na+ influx after 10 mins by FLIPR assay. The class given is cell-based.

For data set [2], the target named is T2, Short transient receptor potential channel 3 (Homo sapiens, UniProt Q13507).
T2 sequence (Q13507 whole entry): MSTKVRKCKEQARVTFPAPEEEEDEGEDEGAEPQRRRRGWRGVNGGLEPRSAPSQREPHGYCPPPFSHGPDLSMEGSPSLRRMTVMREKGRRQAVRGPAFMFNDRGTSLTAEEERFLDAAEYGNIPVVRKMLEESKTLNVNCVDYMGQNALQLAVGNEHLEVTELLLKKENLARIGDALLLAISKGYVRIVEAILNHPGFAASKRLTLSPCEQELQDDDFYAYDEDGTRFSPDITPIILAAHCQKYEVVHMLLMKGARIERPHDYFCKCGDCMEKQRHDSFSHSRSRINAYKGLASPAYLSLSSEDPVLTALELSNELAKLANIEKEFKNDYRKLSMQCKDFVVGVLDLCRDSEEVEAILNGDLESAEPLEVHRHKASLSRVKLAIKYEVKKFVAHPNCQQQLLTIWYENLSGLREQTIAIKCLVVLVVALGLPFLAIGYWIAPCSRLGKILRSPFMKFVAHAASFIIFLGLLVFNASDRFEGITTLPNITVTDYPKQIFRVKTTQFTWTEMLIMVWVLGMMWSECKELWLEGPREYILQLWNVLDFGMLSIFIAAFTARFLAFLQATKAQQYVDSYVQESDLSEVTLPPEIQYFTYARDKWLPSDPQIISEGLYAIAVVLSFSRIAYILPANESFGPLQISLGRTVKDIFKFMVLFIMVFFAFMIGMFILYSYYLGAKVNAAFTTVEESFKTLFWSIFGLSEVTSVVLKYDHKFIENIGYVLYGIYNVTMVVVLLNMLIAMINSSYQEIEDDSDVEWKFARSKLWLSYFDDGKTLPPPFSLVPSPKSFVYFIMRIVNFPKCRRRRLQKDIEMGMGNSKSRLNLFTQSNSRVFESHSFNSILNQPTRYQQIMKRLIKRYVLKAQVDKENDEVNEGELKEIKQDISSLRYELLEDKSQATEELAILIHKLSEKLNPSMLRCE
The data set can be described thus: Inhibition of human recombinant TRPC3 expressed in HEK293-MSRII cells assessed as carbachol-stimulated Ca2+/Na+ influx after 10 mins by FLIPR assay. The data set is classed as cell-based.

For data set [3], the system named is Rattus norvegicus. The data set can be described thus: Mean residence time in rat at 0.92 mg/kg, iv. The data set is classed as ADME, organism-based. The conditions noted are these: in vivo. Set-up: dose 0.92 mg/kg, route intravenous.
Data set [4] can be described thus: Cmax in rat at 0.92 mg/kg, iv. To be noted: in vivo. The data set is classed as ADME, organism-based. The arrangement: dose 0.92 mg/kg, route intravenous.
Data set [5] relates to Rattus norvegicus. The data set can be described thus: Volume of distribution at steady state in rat at 0.92 mg/kg, iv. The conditions noted are these: in vivo. The data set is classed as ADME, organism-based. The arrangement: dose 0.92 mg/kg, route intravenous.
The nature of data set [6]: Oral bioavailability in rat at 0.92 mg/kg. The data set is classed as ADME, organism-based. The conditions noted are these: in vivo.
Data set [7] deals with Rattus norvegicus. Kind of data set: Dose normalized AUC in rat at 0.92 mg/kg, iv. The data set is classed as ADME, organism-based. The conditions noted are these: in vivo. The arrangement: dose 0.92 mg/kg, route intravenous.
Data set [8] deals with T3, Short transient receptor potential channel 6 (Homo sapiens) (UniProt Q9Y210).
T3 sequence (whole entry): T1 sequence (Q9Y210 whole entry)
Kind of data set: Inhibition of human recombinant TRPC6 expressed in HEK293 cells assessed as 1-oleoyl-2-acetyl-glycerol-stimulated current at 0.01 to 0.03 uM by whole cell electrophysiology assay. The data set is classed as cell-based.

Data set [9] deals with T4, Short transient receptor potential channel 3 (Homo sapiens) (UniProt Q13507).
T4 sequence (whole entry): T2 sequence (Q13507 whole entry)
Kind of data set: Inhibition of human recombinant TRPC3 expressed in HEK293 cells assessed as 1-oleoyl-2-acetyl-glycerol-stimulated current at 0.01 to 0.03 uM by whole cell electrophysiology assay. The class given is cell-based.

The nature of data set [10]: Oral bioavailability in rat at 0.93 mg/kg. The data set is classed as ADME, organism-based. To be noted: in vivo.
A short description of data set [11]: Cmax in rat at 0.93 mg/kg, iv. To be noted: in vivo. The class given is ADME, organism-based. Set-up: dose 0.93 mg/kg, route intravenous.
Data set [12] concerns Rattus norvegicus. Kind of data set: Volume of distribution at steady state in rat at 0.93 mg/kg, iv. Set-up: dose 0.93 mg/kg, route intravenous. The conditions noted are these: in vivo. The class given is ADME, organism-based.
Data set [13] has as its system Rattus norvegicus. Kind of data set: Mean residence time in rat at 0.93 mg/kg, iv. The data set is classed as ADME, organism-based. The arrangement: dose 0.93 mg/kg, route intravenous. The conditions noted are these: in vivo.
The test system of data set [14] is Rattus norvegicus. The data set can be described thus: Dose normalized AUC in rat at 0.93 mg/kg, iv. The class given is ADME, organism-based. Set-up: dose 0.93 mg/kg, route intravenous. To be noted: in vivo.
Data set [15] is described as follows: Mean residence time in rat at 1.06 mg/kg, iv. Set-up: dose 1.06 mg/kg, route intravenous. The class given is ADME, organism-based. The conditions noted are these: in vivo.
Data set [16] can be described thus: Cmax in rat at 1.06 mg/kg, iv. The data set is classed as ADME, organism-based. The arrangement: dose 1.06 mg/kg, route intravenous. To be noted: in vivo.
Data set [17] is described as follows: Clearance in rat at 1.06 mg/kg, iv. The data set is classed as ADME, organism-based. The arrangement: dose 1.06 mg/kg, route intravenous. The conditions noted are these: in vivo.
The nature of data set [18]: Oral bioavailability in rat at 1.06 mg/kg. The data set is classed as ADME, organism-based. To be noted: in vivo.
For data set [19], the system named is Rattus norvegicus. The data set can be described thus: Dose normalized AUC in rat at 1.06 mg/kg, iv. The data set is classed as ADME, organism-based. The arrangement: dose 1.06 mg/kg, route intravenous. To be noted: in vivo.
The nature of data set [20]: Volume of distribution at steady state in rat at 1.06 mg/kg, iv. Set-up: dose 1.06 mg/kg, route intravenous. To be noted: in vivo, read-out: Vdss. The data set is classed as ADME, organism-based.

In the case of `CC1CCN(C(=O)c2csc(Nc3ccccc3Cl)n2)CC1`, the IC50 amounted to 3160 nM in [1] and 6300 nM in data set [2].

Take `Cc1sc(Nc2ccc(Cl)cc2F)nc1C(=O)N1CCc2ncccc2C1`: the half-maximal inhibitory concentration (IC50) amounted to 6300 nM in [1] and 20000 nM in [2]. Also, the MRT with Rattus norvegicus [3] turned out to be 1.6 h. The Cmax in data set [4] stood at 510 ng/mL. Also, the volume of distribution (Vdss) with Rattus norvegicus [5] was found to be 0.7 L/kg. Also, the bioavailability in [6] was 100%. This compound gave an AUC/dose in the data set on Rattus norvegicus [7] of 0.85 kg·h/L.

On to `Cc1ccc(Nc2nc(C(=O)N3CCC(C)CC3)cs2)cc1`, for which the IC50 in data set [1] turned out to be 400 nM; in data set [2], 630 nM.

Regarding `Cc1ccc(Nc2nc(C(=O)N3CCCC(c4ccccc4)C3)cs2)cc1` (configuration not stated), the half-inhibitory concentration (IC50) in data set [1] and in data set [2] was greater than 25000 nM in each case.

Consider `CC1CCN(C(=O)c2csc(Nc3ccc(Cl)cc3)n2)CC1`, for which the IC50 in data set [1] and in data set [2] was 800 nM each time. Further, the inhibition entry in data set [8] and in [9] was “Active” each time.

Turning to `Cc1sc(Nc2cc3c(cc2F)OCO3)nc1C(=O)N1CCCC(C)C1C` (configuration not stated), the IC50 in [1] turned out to be 25 nM; in data set [2] it was 160 nM.

Turning to `COc1ccc(Nc2nc(C(=O)N3CCc4ccccc4C3)cs2)cc1`, the IC50 in [1] was determined as 500 nM; in data set [2], 1260 nM. This compound returned a bioavailability in [10] of 1%. The compound further had a peak concentration (Cmax) in data set [11] of 250 ng/mL. Besides, the distribution volume (Vdss) with Rattus norvegicus [12] amounted to 0.7 L/kg. The mean residence time (MRT) in the data set on Rattus norvegicus [13] was determined as 18 min. In the data set with Rattus norvegicus [14], this compound returned an AUC/dose of 0.14 kg·h/L.

For the compound `COc1ccc(Nc2nc(C(=O)N3CCC(C)CC3)cs2)cc1`, the IC50 in data set [1] and in [2] was 800 nM throughout.

Regarding `COc1ccc(Nc2nc(C(=O)N3CCC(c4ccccc4)CC3)cs2)cc1`, the 50% inhibitory concentration (IC50) in data set [1] was 1600 nM; in data set [2] it was 2500 nM.

Turning to `Cc1ccc(Nc2nc(C(=O)N3CCC(C4CCCCC4)CC3)cs2)cc1`, the IC50 was determined as 4000 nM in data set [1] and 6300 nM in [2].

`CC1CCN(C(=O)c2csc(Nc3ccc4c(c3)OCO4)n2)CC1`: the results for the 50% inhibitory concentration (IC50) in data set [1] and in data set [2] were 160 nM and 400 nM, respectively.

`Cc1sc(Nc2ccc3c(c2)OCO3)nc1C(=O)N1CCc2ncccc2C1C` (configuration not stated): the values for the half-maximal inhibitory concentration (IC50) in data set [1] and in data set [2] were 1260 nM and 10000 nM, respectively. In addition, the MRT in [15] is 1.3 h. The Cmax in data set [16] is 1800 ng/mL. Also, the clearance in data set [17] came to 9.3 mL/min/kg. For the same compound, the bioavailability in data set [18] worked out at 65%. The AUC/dose with Rattus norvegicus [19] came out at 1.86 kg·h/L. Moreover, the Vd in [20] was found to be 0.7 L/kg.
